14 molecules from patent publication US11160871B2, “SSTR-targeted conjugates and particles and formulations thereof” (TARVEDA THERAPEUTICS, INC., priority 2015, dated 2021) can be followed below.

Series [1] concerns NCI-H524 human small cell lung cancer cells. Briefly: cells. The class given is cell-based. The protocol: Conjugates of the present invention were assessed in an in vitro assay evaluating inhibition of cell proliferation. NCI-H524 (ATCC) human small cell lung cancer cells were plated in 96 well, V-bottomed plates (Costar) at a concentration of 5,000 cells/well. 24 hours later, cells were treated with either conjugate for 2 hours and further incubated 70 hours, or for octreotide competition experiments, treated with 100 μM octreotide for 30 min, and then treated with conjugate for 2 hours, and further incubated for 70 hours. Conjugate starting dose was 20 μM and three fold serial dilutions were done for a total of ten points. After 2 hours of treatment, cells were spun down, the drug containing media was removed, and fresh complete medium was added and used to resuspend the cells, which were spun again. After removal of the wash media, the cells were resuspended in complete medium, and then transferred into white walled, flat bottomed 96 well plates. […] Proliferation was measured using CellTiter Glo reagent using the standard protocol (Promega) and a Glomax multi+ detection system (Promega). Percent proliferation inhibition was calculated using the following formula: % inhibition=(control−treatment)/control*100. Control is defined as vehicle alone. IC50 curves were generated using the nonlinear regression analysis (four parameter) with GraphPad Prism 6.

The test system of series [2] is NCI-H69 SCLC tumors. Briefly: H69 tumor DM-1 levels by LC/MS-MS. The class given is in vivo, mice. The settings on record: 1 mg/kg; 24 hour time point. As for the experimental part: To examine the ability of conjugates of the present invention to accumulate in tumors, a murine cancer model was used. All mice were treated in accordance with the OLAW Public Health Service Policy on Human Care and Use of Laboratory Animals and the ILAR Guide for the Care and Use of Laboratory Animals. All in vivo studies were conducted following the protocols approved by the Blend Therapeutics Institutional Animal Care and Use Committee. Animals were inoculated with 2.5×10^6 NCI-H69 SCLC (small cell lung cancer) cells in 1:1 RPMI 1640 (Invitrogen, Carlsbad, Calif.)/Matrigel® (BD Biosciences, San Jose, Calif.) via subcutaneous injection to the right flank. Tumors were allowed to reach an approximate volume of ˜500 mm3. Animals were then randomized into treatment groups of 3 animals per time point and were dosed at 1 mg/kg (10% propylene glycol in water for injection for free conjugates, or 10% sucrose for nanoparticles), or 0.4 mg/kg for DM-1 (10% propylene glycol in water for injection). The 24 hour time point was used as a benchmark across conjugates.
Tumor DM-1 levels were determined by liquid chromatography mass spectrometry (LC/MS-MS). Four volumes of 5 mM 6-maleimidohexanoic acid to 1 part tumor v/w was added and homogenized for about 10-15 seconds with a handheld homogenizer. 10 μL of 500 mM Tris(2-carboxyethyl)phosphine was added to 100 uL of tumor homogenate, mixed well and incubated at room temperature for about 5-15 min. 200-300 uL of acetonitrile was used to precipitate proteins in tumor homogenate, samples were centrifuged for 5 min, and supernatant was injected onto LC/MS-MS system for DM-1 analysis.

Setting [3] is: 2 hours treatment, 70 hours further incubation, read-out: H524 IC50.
[4] abbreviates: read-out: H524 IC50+ 100 uM octreotide, 100 μM octreotide for 30 min before conjugate.

pIC50: −log10 of the molar value. Read-outs that look alike come from different tables or passages of the source. Starred links: 1 amine or outer side, 2 acyl side, 3 side chain; linkers in the order of their positions; H or OH if unused. Positions of bridges follow the written chain, without caps; N, C: chain ends. Non-standard residues stand in square brackets, D forms with d. Residues, ends and D or L forms follow the SMILES beside them. *: point of attachment. NH(CH2)2SS(DM1) = COc1cc2cc(c1Cl)N(C)C(=O)C[C@H](OC(=O)[C@H](C)N(C)C(=O)CCSSCCN*)[C@]1(C)O[C@H]1[C@H](C)[C@@H]1C[C@@](O)(NC(=O)O1)[C@H](OC)/C=C/C=C(\C)C2; X1 = COc1cc2cc(c1Cl)N(C)C(=O)C[C@H](OC(=O)[C@H](C)N(C)C(=O)CCS*)[C@]1(C)O[C@H]1[C@H](C)[C@@H]1C[C@@](O)(NC(=O)O1)[C@H](OC)/C=C/C=C(\C)C2; N(3-sulfanylpropyl)dPhe = O=C([C@@H](Cc1ccccc1)N(CCCS[*:3])[*:1])[*:2]; Thr(ol) = C[C@@H](O)[C@H](N)CO

A word on the pIC50: it is −log10 of the IC50, conventionally taken in molar units. As for `COc1cc2cc(c1Cl)N(C)C(=O)C[C@H](OC(=O)[C@H](C)N(C)C(=O)CCSSCCC(=O)NCCOCCOCCOCCOCCOCCOCCOCCOCCC(=O)N[C@H](Cc1ccccc1)C(=O)N[C@H]1CSSC[C@@H](C(=O)N[C@H](CO)[C@@H](C)O)NC(=O)[C@H]([C@@H](C)O)NC(=O)[C@H](CCCCN)NC(=O)[C@@H](Cc3c[nH]c4ccccc34)NC(=O)[C@H](Cc3ccccc3)NC1=O)[C@]1(C)O[C@H]1[C@H](C)[C@@H]1C[C@@](O)(NC(=O)O1)[C@H](OC)/C=C/C=C(\C)C2` [Conjugate 6], the pIC50 in series [1] (setting [3]) was 6.63.

Regarding `COc1cc2cc(c1Cl)N(C)C(=O)C[C@H](OC(=O)[C@H](C)N(C)C(=O)CCSSC[C@H](N)C(=O)N[C@@H](CCCCN)C(=O)N[C@@H](CCCCN)C(=O)N[C@@H](CCCCN)C(=O)N[C@@H](CCCCN)C(=O)N[C@H](Cc1ccccc1)C(=O)N[C@H]1CSSC[C@@H](C(=O)N[C@H](CO)[C@@H](C)O)NC(=O)[C@H]([C@@H](C)O)NC(=O)[C@H](CCCCN)NC(=O)[C@@H](Cc3c[nH]c4ccccc34)NC(=O)[C@H](Cc3ccccc3)NC1=O)[C@]1(C)O[C@H]1[C@H](C)[C@@H]1C[C@@](O)(NC(=O)O1)[C@H](OC)/C=C/C=C(\C)C2` [Conjugate 7] (H-C(X1)KKKK[dF]CF[dW]KTC[Thr(ol)]; disulfide 7-12), the pIC50 in series [1] (setting [3]) was 6.02.

`COc1cc2cc(c1Cl)N(C)C(=O)C[C@H](OC(=O)[C@H](C)N(C)C(=O)CCSSCCC(=O)NCCCC[C@H]1C(=O)N[C@@H](Cc3ccc(O)cc3)C(=O)N[C@H](Cc3c[nH]c4ccccc34)C(=O)N[C@@H](CCCCN)C(=O)N[C@@H]([C@@H](C)O)C(=O)N[C@@H](Cc3ccccc3)C(=O)N1C)[C@]1(C)O[C@H]1[C@H](C)[C@@H]1C[C@@](O)(NC(=O)O1)[C@H](OC)/C=C/C=C(\C)C2` [Conjugate 10]: the “H69 tumor DM-1 levels” value in series [2] is recorded as 72.1 nM.

As for `COc1cc2cc(c1Cl)N(C)C(=O)C[C@H](OC(=O)[C@H](C)N(C)C(=O)CCSSCCNC(=O)CC[C@H]1C(=O)N[C@@H](Cc3ccc(O)cc3)C(=O)N[C@H](Cc3c[nH]c4ccccc34)C(=O)N[C@@H](CCCCN)C(=O)N[C@@H]([C@@H](C)O)C(=O)N[C@@H](Cc3ccccc3)C(=O)N1C)[C@]1(C)O[C@H]1[C@H](C)[C@@H]1C[C@@](O)(NC(=O)O1)[C@H](OC)/C=C/C=C(\C)C2` [Conjugate 14], the “H69 tumor DM-1 levels” value in series [2] came out at 70.1 nM.

As to `COc1cc2cc(c1Cl)N(C)C(=O)C[C@H](OC(=O)[C@H](C)N(C)C(=O)CCSSC[C@H](NC(=O)CC[C@H]1C(=O)N[C@@H](Cc3ccc(O)cc3)C(=O)N[C@H](Cc3c[nH]c4ccccc34)C(=O)N[C@@H](CCCCN)C(=O)N[C@@H]([C@@H](C)O)C(=O)N[C@@H](Cc3ccccc3)C(=O)N1C)C(=O)NC(C)(C)CC(C)(C)C)[C@]1(C)O[C@H]1[C@H](C)[C@@H]1C[C@@](O)(NC(=O)O1)[C@H](OC)/C=C/C=C(\C)C2` [Conjugate 16], the “H69 tumor DM-1 levels” value in series [2] was 96.4 nM.

`CCCCN(CCSSCCC(=O)N(C)[C@@H](C)C(=O)O[C@H]1CC(=O)N(C)c2cc(cc(OC)c2Cl)C/C(C)=C/C=C/[C@@H](OC)[C@@]2(O)C[C@H](OC(=O)N2)[C@@H](C)[C@@H]2O[C@@]12C)C(=O)CC[C@H]1C(=O)N[C@@H](Cc2ccc(O)cc2)C(=O)N[C@H](Cc2c[nH]c3ccccc23)C(=O)N[C@@H](CCCCN)C(=O)N[C@@H]([C@@H](C)O)C(=O)N[C@@H](Cc2ccccc2)C(=O)N1C` [Conjugate 22]: in series [2], the “H69 tumor DM-1 levels” value is 145 nM.

In the case of `COc1cc2cc(c1Cl)N(C)C(=O)C[C@H](OC(=O)C(C)N(C)C(=O)CCSSCC(=O)NCCNC(=O)CC[C@H]1C(=O)N[C@@H](Cc3ccc(O)cc3)C(=O)N[C@H](Cc3c[nH]c4ccccc34)C(=O)N[C@@H](CCCCN)C(=O)N[C@@H]([C@@H](C)O)C(=O)N[C@@H](Cc3ccccc3)C(=O)N1C)[C@]1(C)O[C@H]1[C@H](C)[C@@H]1C[C@@](O)(NC(=O)O1)[C@H](OC)/C=C/C=C(\C)C2` (stereo partly drawn) [Conjugate 30], the pIC50 was 6.33 in series [1] (setting [3]) and 5.70 in series [1] (setting [4]).

As for `COc1cc2cc(c1Cl)N(C)C(=O)C[C@H](OC(=O)[C@H](C)N(C)C(=O)CCSSCCNC(=O)[C@@H](NC(=O)[C@@H]1CSSC[C@H](NC(=O)[C@H](N)Cc3ccccc3)C(=O)N[C@@H](Cc3ccc(O)cc3)C(=O)N[C@H](Cc3c[nH]c4ccccc34)C(=O)N[C@@H](CCCCN)C(=O)N[C@@H]([C@@H](C)O)C(=O)N1)[C@@H](C)O)[C@]1(C)O[C@H]1[C@H](C)[C@@H]1C[C@@](O)(NC(=O)O1)[C@H](OC)/C=C/C=C(\C)C2` [Conjugate 35], the “H69 tumor DM-1 levels” value in series [2] worked out at 23.2 nM.

In the case of `COc1cc2cc(c1Cl)N(C)C(=O)C[C@H](OC(=O)[C@H](C)N(C)C(=O)CCSSCCC(=O)NCCOCCOCCOCCNC(=O)[C@@H](NC(=O)[C@@H]1CSSC[C@H](NC(=O)[C@H](N)Cc3ccccc3)C(=O)N[C@@H](Cc3ccc(O)cc3)C(=O)N[C@H](Cc3c[nH]c4ccccc34)C(=O)N[C@@H](CCCCN)C(=O)N[C@@H]([C@@H](C)O)C(=O)N1)[C@@H](C)O)[C@]1(C)O[C@H]1[C@H](C)[C@@H]1C[C@@](O)(NC(=O)O1)[C@H](OC)/C=C/C=C(\C)C2` [Conjugate 47], the pIC50 is 5.67 in series [1] (setting [3]) and 5.90 in series [1] (setting [4]).

Take `COc1cc2cc(c1Cl)N(C)C(=O)C[C@H](OC(=O)[C@H](C)N(C)C(=O)CCSSCCNC(=O)[C@H](Cc1c[nH]c3ccccc13)NC(=O)[C@@H]1CSSC[C@H](NC(=O)[C@H](N)Cc3ccccc3)C(=O)N[C@@H](Cc3ccc(O)cc3)C(=O)N[C@H](Cc3c[nH]c4ccccc34)C(=O)N[C@@H](CCCCN)C(=O)N[C@@H]([C@@H](C)O)C(=O)N1)[C@]1(C)O[C@H]1[C@H](C)[C@@H]1C[C@@](O)(NC(=O)O1)[C@H](OC)/C=C/C=C(\C)C2` [Conjugate 49] (H-[dF]CY[dW]KTCW-{NH(CH2)2SS(DM1)}; disulfide 2-7): the pIC50 is 7.16 in series [1] (setting [3]) and 6.61 in series [1] (setting [4]).

Consider `CCCCCCCCN[C@H](Cc1ccccc1)C(=O)N[C@H]1CSSC[C@@H](C(=O)N[C@H](C(=O)NCCSSCCC(=O)N(C)[C@@H](C)C(=O)O[C@H]2CC(=O)N(C)c3cc(cc(OC)c3Cl)C/C(C)=C/C=C/[C@@H](OC)[C@@]3(O)C[C@H](OC(=O)N3)[C@@H](C)[C@@H]3O[C@@]23C)[C@@H](C)O)NC(=O)[C@H]([C@@H](C)O)NC(=O)[C@H](CCCCN)NC(=O)[C@@H](Cc2c[nH]c3ccccc23)NC(=O)[C@H](Cc2ccc(O)cc2)NC1=O` [Conjugate 55], for which the “H69 tumor DM-1 levels” value in series [2] amounted to 95.3 nM.

`COc1cc2cc(c1Cl)N(C)C(=O)C[C@H](OC(=O)[C@H](C)N(C)C(=O)CCSSCCCN[C@H](Cc1ccccc1)C(=O)N[C@H]1CSSC[C@@H](C(=O)N[C@H](CO)[C@@H](C)O)NC(=O)[C@H]([C@@H](C)O)NC(=O)[C@H](CCCCN)NC(=O)[C@@H](Cc3c[nH]c4ccccc34)NC(=O)[C@H](Cc3ccccc3)NC1=O)[C@]1(C)O[C@H]1[C@H](C)[C@@H]1C[C@@](O)(NC(=O)O1)[C@H](OC)/C=C/C=C(\C)C2` [Conjugate 76]: the “H69 tumor DM-1 levels” value in series [2] came out at 62.2 nM.

In the case of `COc1cc2cc(c1Cl)N(C)C(=O)C[C@H](OC(=O)[C@H](C)N(C)C(=O)CCSSCCCN[C@H](Cc1ccccc1)C(=O)N[C@H]1CSSC[C@@H](C(=O)N[C@@H](Cc3c[nH]c4ccccc34)C(N)=O)NC(=O)[C@H](C(C)C)NC(=O)[C@H](CCCCN)NC(=O)[C@@H](Cc3c[nH]c4ccccc34)NC(=O)[C@H](Cc3ccc(O)cc3)NC1=O)[C@]1(C)O[C@H]1[C@H](C)[C@@H]1C[C@@](O)(NC(=O)O1)[C@H](OC)/C=C/C=C(\C)C2` [Conjugate 78] (H-[N(3-sulfanylpropyl)dPhe](X1)CY[dW]KVCW-NH2; disulfide 2-7), the “H69 tumor DM-1 levels” value in series [2] was determined as 36.2 nM.

In the case of `COc1cc2cc(c1Cl)N(C)C(=O)C[C@H](OC(=O)[C@H](C)N(C)C(=O)CCSSCCNC(=O)N[C@H](Cc1ccccc1)C(=O)N[C@H]1CSSC[C@@H](C(=O)N[C@H](CO)[C@@H](C)O)NC(=O)[C@H]([C@@H](C)O)NC(=O)[C@H](CCCCN)NC(=O)[C@@H](Cc3c[nH]c4ccccc34)NC(=O)[C@H](Cc3ccccc3)NC1=O)[C@]1(C)O[C@H]1[C@H](C)[C@@H]1C[C@@](O)(NC(=O)O1)[C@H](OC)/C=C/C=C(\C)C2` [Conjugate 84], the values for the pIC50 in series [1] (setting [3]) and in series [1] (setting [4]) were 7.12 and 6.51, respectively.
